Reference: patent US9206186B2, “2-phenoxy- and 2-phenylsulfonamide derivatives with CCR3 antagonistic activity for the treatment of inflammatory or immunological disorders” (AXIKIN PHARMACEUTICALS, INC., priority 2003, dated 2015)
Structures can show the parent of a compound that is named as a salt.

What follows are compounds tested against T1, Human CCR3 (Homo sapiens, UniProt P51677) (assay: Calcium mobilization assay (Ca2+), eotaxin-stimulated human CCR3-transformed K562 cells). Details: compounds of about 40 to 90% purity, read-out: Activity grade IC50.
T1 construct: The cloned CCR3 cDNA was constructed with pcDNA3 vector and transfected into a K562 cell line; expressed in transfected cells
T1 sequence (P51677 1-355): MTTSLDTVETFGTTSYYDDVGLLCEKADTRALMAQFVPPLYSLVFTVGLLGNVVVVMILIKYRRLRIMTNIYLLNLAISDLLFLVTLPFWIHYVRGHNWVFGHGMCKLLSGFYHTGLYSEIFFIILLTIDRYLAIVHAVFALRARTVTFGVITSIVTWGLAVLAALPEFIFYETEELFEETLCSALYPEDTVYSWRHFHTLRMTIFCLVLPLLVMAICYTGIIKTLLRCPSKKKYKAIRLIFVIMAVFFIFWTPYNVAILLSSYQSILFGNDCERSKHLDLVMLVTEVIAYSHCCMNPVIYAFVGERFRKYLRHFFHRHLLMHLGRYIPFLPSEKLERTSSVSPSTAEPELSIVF
Type: cell-based
Protocol: • Human CCR3-transformed K562 cells were used. The cloned CCR3 cDNA was constructed with pcDNA3 vector and transfected into a K562 cell line. The human CCR3-transformed K562 cells were maintained in RPMI-1640 (Cat.#22400-089, Life Technologies) supplemented with 10% FCS (Cat.#A-1115-L, Hyclone), 55 μM 2-mercaptoethanol (Cat.#21985-023, Life Technologies), 1 mM sodium pyruvate (Cat.#11360-070, Life Technologies), 100 units/ml of penicillin G and 100 μg/ml of streptomycin (Cat.#15140-122, Life Technologies), and 0.4 mg/ml of Geneticin (Cat.#10131-035, Life Technologies) (hereinafter called “culture medium”). Before the receptor binding assay, cells were pretreated with 5 mM sodium butyrate (Cat.#193-01522, Wako)-containing the culture medium (2×10^5 cells/ml) for 20-24 hours to increase the expression of CCR3. (2) Receptor Binding Assay • Butyrate-pretreated cells, suspended in binding buffer (25 mM HEPES pH 7.6, 1 mM CaCl2, 5 mM MgCl2, 0.5% BSA, 0.1% NaN3) at a cell density of 2×10^6 cells/ml, were added into 60 μl/well in the 96-well round bottom polypropylene plate (Cat.#3365, Costar). Compounds, diluted with the binding buffer (4-times higher concentration of the final concentration), were added into 30 μl/well in the polypropylene plate. [^125I]-labeled human eotaxin (Cat.#IM290, Amersham Pharmacia Biotech), diluted with the binding buffer at the concentration of 0.4 nM (final concentration; 0.1 nM), was added into 30 μl/well in the polypropylene plate. Total 120 μl/well of binding reaction mixture (60 μl/well of cell suspension, 30 μl/well of compound solution, and 30 μl/well of [^125I]-labeled eotaxin) were incubated in the polypropylene plate for 1 hour at room temperature after the incubation, 100 μl/well of the reaction mixture was transferred to a filtration plate (Cat.#MAFB-N0B, Millipore), and washed with the washing buffer (25 mM HEPES pH 7.6, 1 mM CaCl2, 5 mM MgCl2, 0.5% BSA, 0.1% NaN3, 0.5 M NaCl) twice. The 96-well filtration plate was pretreated with 100 μl/well of 0.5% polyethylenimine (Cat.#P-3143, Sigma) for 2-4 hours at room temperature and washed with the washing buffer twice before use. The non-specific binding was determined by parallel incubation in the presence of 500 nM of non-labeled eotaxin (Cat.#23209, Genzyme Techne). The radioactivities remained on the filter were measured by liquid scintillation counter (TopCount™, Packard) after an addition of 45 μl/well of scintillant (Microscint20, Cat.#6013621, Packard). The inhibition percent at each concentration of compound was calculated, and IC50 values were determined from the inhibition curve. [Determination of IC50 Values of Compounds in Calcium Mobilization Assay] (1) Cell • Human CCR3-transformed K562 cells were used. The human CCR3-transformed K562 cells were maintained in RPMI-1640 supplemented with 10% FCS, 55 μM 2-mercaptoethanol (Cat.#21985-023, Life Technologies), 1 mM sodium pyruvate, 100 units/ml of penicillin G and 100 μg/ml of streptomycin, and 0.4 mg/ml of Geneticin. Before the calcium mobilization assay, cells were pretreated with 5 mM sodium butyrate-containing the culture medium (2×10^5 cells/ml) for 20-24 hours to increase the expression of CCR3. (2) Calcium Mobilization Assay • Butyrate-pretreated cells were loaded with Fluo-3AM (Cat.#F-1242, Molecular Probes) in loading buffer (Hanks' solution Cat.#05906 Nissui, 20 mM HEPES pH 7.6, 0.1% BSA, 1 mM probenecid Cat.#P-8761 Sigma, 1 μM Fluo-3AM, 0.01% pluronic F-127 Cat.#P-6866 Molecular Probes) at a cell density of 1×10^7 cells/ml. Then, cells were washed with calcium assay buffer (Hanks' solution Cat.#05906 Nissui, 20 mM HEPES pH 7.6, 0.1% BSA, 1 mM Probenecid Cat.#P-8761 Sigma). The cell suspension (3.3×10^6 cells/ml) was added into 60 μl/well in the 96-well clear bottom black plate (Cat.#3904, Costar). Compounds, diluted (5-times concentration of the final concentration) with the calcium assay buffer, were added into 20 μl/well in the plate 10 minutes before assay. […]
`N#Cc1ccc(Oc2cc(Cl)cc(Cl)c2)c(S(=O)(=O)N[C@H]2CN3CCC2CC3)c1` [Example 1-1, N—(R)-(+)-(1-aza-bicyclo[2.2.2]oct-3-yl)-5-cyano-2-(3,5-dichloro-phenoxy)-benzenesulfonamide] showed an IC50 of less than 100 nM.
`CN(C)CCN(CCN1C(=O)CCC1=O)S(=O)(=O)c1cc(C#N)ccc1Oc1cc(Cl)cc(Cl)c1` [Example 1-2, 5-cyano-2-(3,5-dichloro-phenoxy)-N-(2-dimethylamino-ethyl)-N-[2-(2,5-dioxo-pyrrolidin-1-yl)-ethyl]-benzenesulfonamide] was tested, and the IC50 was less than 100 nM.
`N#Cc1ccc(Oc2cc(Cl)cc(Cl)c2)c(S(=O)(=O)N2CCN[C@@H](Cc3c[nH]c4ccccc34)C2)c1` [Example 1-3, 4-(3,5-dichloro-phenoxy)-3-[(3S)-(1H-indol-3-ylmethyl)-piperazine-1-sulfonyl]-benzonitrile] gave an IC50 of less than 100 nM.
For `N#Cc1ccc(Oc2cc(Cl)cc(Cl)c2)c(S(=O)(=O)N2CCNCC2Cn2cncn2)c1` (stereo not drawn) [Example 1-4, 4-(3,5-dichlorophenoxy)-3-{[2-(1H-1,2,4-triazol-1-ylmethyl)-1-piperazinyl]sulfonyl}benzonitrile hydrochloride], the IC50 was less than 100 nM.
With `N#Cc1ccc(Oc2cc(Cl)cc(Cl)c2)c(S(=O)(=O)N2CCCCC2)c1` [Example 1-5] the IC50 was greater than 500 nM.
`N#Cc1ccc(Oc2cc(Cl)cc(Cl)c2)c(S(=O)(=O)N2CC3CCN(Cc4ccccc4)C3C2)c1` (stereo not drawn) [Example 1-6] was tested, and the IC50 was less than 100 nM.
For `CS(=O)(=O)NCC1CN(S(=O)(=O)c2cc(C#N)ccc2Oc2cc(Cl)cc(Cl)c2)CCN1` (stereo not drawn) [Example 1-7], the IC50 was less than 100 nM.
Work on `CC(=O)NCC1CN(S(=O)(=O)c2cc(C#N)ccc2Oc2cc(Cl)cc(Cl)c2)CCN1` (stereo not drawn) [Example 1-8] yielded an IC50 of less than 100 nM.
Compound `CS(=O)(=O)NCC1CNCCN1S(=O)(=O)c1cc(C#N)ccc1Oc1cc(Cl)cc(Cl)c1` (stereo not drawn) [Example 1-9] has an IC50 of less than 100 nM.
`CC(=O)NCC1CNCCN1S(=O)(=O)c1cc(C#N)ccc1Oc1cc(Cl)cc(Cl)c1` (stereo not drawn) [Example 1-10] showed an IC50 of less than 100 nM.
`N#Cc1ccc(Oc2cc(Cl)cc(Cl)c2)c(S(=O)(=O)N2CCC(N3C[C@H](O)[C@@H](O)C3)CC2)c1` [Example 1-11] was tested, and the IC50 was less than 100 nM.
`COC(=O)C1CN(S(=O)(=O)c2cc(C#N)ccc2Oc2cc(Cl)cc(Cl)c2)CCCN1` (stereo not drawn) [Example 1-12] showed an IC50 of 100 to 500 nM.
With `COC(=O)[C@@H]1C[C@H](N2CCCC2)CN1S(=O)(=O)c1cc(C#N)ccc1Oc1cc(Cl)cc(Cl)c1` [Example 1-13] the IC50 was less than 100 nM.
Compound `N#Cc1ccc(Oc2cc(Cl)cc(Cl)c2)c(S(=O)(=O)N2CC[C@H](NCCO)C2)c1` [Example 1-16] has an IC50 of less than 100 nM.
With `COC(=O)C1CNCCCN1S(=O)(=O)c1cc(C#N)ccc1Oc1cc(Cl)cc(Cl)c1` (stereo not drawn) [Example 1-22] the IC50 was less than 100 nM.
`N#Cc1ccc(Oc2cc(Cl)cc(Cl)c2)c(S(=O)(=O)N2CCNC[C@@H]2Cc2c[nH]c3ccccc23)c1` [Example 1-26] gave an IC50 of less than 100 nM.
Compound `N#Cc1ccc(Oc2cc(Cl)cc(Cl)c2)c(S(=O)(=O)N2CCNCC2CN2C(=O)CCC2=O)c1` (stereo not drawn) [Example 1-27] has an IC50 of less than 100 nM.
In the case of `CS(=O)(=O)NCC1CN(S(=O)(=O)c2cc(C#N)ccc2Oc2cc(Cl)cc(Cl)c2)CCCN1` (stereo not drawn) [Example 1-28], the IC50 is reported as less than 100 nM.
For `CS(=O)(=O)NCC1CNCCCN1S(=O)(=O)c1cc(C#N)ccc1Oc1cc(Cl)cc(Cl)c1.Cl` (stereo not drawn) [Example 1-29], the IC50 was less than 100 nM.
In the case of `CC(=O)c1ccc(Oc2cc(Cl)cc(Cl)c2)c(S(=O)(=O)N2CCNCC2)c1` [Example 1-31], the IC50 is reported as less than 100 nM.
`N#Cc1ccc(Oc2cc(Cl)cc(Cl)c2)c(S(=O)(=O)N[C@@H]2CN3CCC2CC3)c1` [Example 1-32] gave an IC50 of less than 100 nM.
`N#Cc1ccc(Oc2cc(Cl)cc(Cl)c2)c(S(=O)(=O)N2CCC(N3CCC[C@H]3C(=O)O)CC2)c1` [Example 1-33] was tested, and the IC50 was 100 to 500 nM.
With `CC(C)(O)[C@@H]1CCCN1C1CCN(S(=O)(=O)c2cc(C#N)ccc2Oc2cc(Cl)cc(Cl)c2)CC1` [Example 1-34] the IC50 was less than 100 nM.
`N#Cc1ccc(Oc2cc(Cl)cc(Cl)c2)c(S(=O)(=O)N2CCCCC2CN2CCC(O)C2)c1` (stereo not drawn) [Example 1-35] showed an IC50 of less than 100 nM.
Work on `N#Cc1ccc(Oc2cc(Cl)cc(Cl)c2)c(S(=O)(=O)N2CCNC(Cn3ncnn3)C2)c1` (stereo not drawn) [Example 1-36] yielded an IC50 of less than 100 nM.
`Cl.N#Cc1ccc(Oc2cc(Cl)cc(Cl)c2)c(S(=O)(=O)N2CCNC(Cn3cncn3)C2)c1` (stereo not drawn) [Example 1-37] gave an IC50 of less than 100 nM.
`CCN1CCCN(S(=O)(=O)c2cc(C#N)ccc2Oc2cc(Cl)cc(Cl)c2)C(C(=O)OC)C1` (stereo not drawn) [Example 1-39] gave an IC50 of less than 100 nM.
Compound `N#Cc1ccc(Oc2cc(Cl)cc(Cl)c2)c(S(=O)(=O)N(CCN2CCCC2)C2CCCC2)c1` [Example 1-42] has an IC50 of less than 100 nM.
In the case of `N#Cc1ccc(Oc2cc(Cl)cc(Cl)c2)c(S(=O)(=O)N2CCNC(CN3C(=O)CCC3=O)C2)c1` (stereo not drawn) [Example 1-43], the IC50 is reported as less than 100 nM.
For `N#Cc1ccc(Oc2cc(Cl)cc(Cl)c2)c(S(=O)(=O)N2CCC(N3CCCC3)C(CN3C(=O)CCC3=O)C2)c1` (stereo not drawn) [Example 1-44], the IC50 was less than 100 nM.
`N#Cc1ccc(Oc2cc(Cl)cc(Cl)c2)c(S(=O)(=O)N2CCC(N3CCC[C@H]3CO)CC2)c1` [Example 1-45] was tested, and the IC50 was less than 100 nM.
Work on `N#Cc1ccc(Oc2cc(Cl)cc(Cl)c2)c(S(=O)(=O)N2CCC[C@H]2CN2CCC[C@H]2CO)c1` [Example 1-46] yielded an IC50 of less than 100 nM.
In the case of `N#Cc1ccc(Oc2cc(Cl)cc(Cl)c2)c(S(=O)(=O)C2CCNCC2)c1` [Example 2-1, 4-(3,5-Dichloro-phenoxy)-3-(piperidine-4-sulfonyl)-benzonitrile], the IC50 is reported as greater than 500 nM.
